According to PubChem BioAssay (NCI):
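Compound exposure: 48 hours, 5 concentrations, 96-well plates. Definition used: TGI = concentration required for complete inhibition of growth.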

Experiments:
Experiment in all cases: NCI-60 cell line screen, 48 h
DU-145 prostate = tested on: DU-145 prostate
U251 CNS = tested on: U251 CNS
NCI-H522 lung = tested on: NCI-H522 lung
TK-10 renal = tested on: TK-10 renal
HOP-92 NSCLC = tested on: HOP-92 NSCLC
BT-549 breast = tested on: BT-549 breast
MDA-MB-231 breast = tested on: MDA-MB-231 breast
786-0 renal = tested on: 786-0 renal
KM12 colon = tested on: KM12 colon
T-47D breast = tested on: T-47D breast
ACHN renal = tested on: ACHN renal
LOX IMVI melanoma = tested on: LOX IMVI melanoma
HCT-116 colon = tested on: HCT-116 colon
A498 renal = tested on: A498 renal
HT29 colon = tested on: HT29 colon
MCF7 breast = tested on: MCF7 breast
K-562 leukemia = tested on: K-562 leukemia
SF-539 CNS = tested on: SF-539 CNS

COC(=O)c1c2n(c3ccccc13)C[C@H]1OC(C)(C)O[C@@H]21
TGI (DU-145 prostate): > 100 µM
TGI (U251 CNS): > 100 µM
TGI (NCI-H522 lung): > 100 µM
TGI (TK-10 renal): > 100 µM
TGI (HOP-92 NSCLC): > 100 µM
TGI (BT-549 breast): > 100 µM
TGI (MDA-MB-231 breast): > 100 µM
TGI (786-0 renal): > 100 µM
TGI (KM12 colon): > 100 µM
TGI (T-47D breast): > 100 µM
TGI (ACHN renal): > 100 µM
TGI (LOX IMVI melanoma): > 100 µM
TGI (HCT-116 colon): > 100 µM
TGI (A498 renal): > 100 µM
TGI (HT29 colon): > 100 µM
TGI (MCF7 breast): > 100 µM
TGI (K-562 leukemia): > 100 µM
TGI (SF-539 CNS): > 100 µM

O=C(N=S(NC(=O)c1ccccc1)C(Cl)(Cl)Cl)c1ccccc1 (centres undefined)
TGI (DU-145 prostate): > 100 µM
TGI (U251 CNS): > 90.7 µM
TGI (NCI-H522 lung): 51.1 µM
TGI (TK-10 renal): > 100 µM
TGI (HOP-92 NSCLC): > 100 µM
TGI (BT-549 breast): 32.4 µM
TGI (MDA-MB-231 breast): > 100 µM
TGI (786-0 renal): 54.9 µM
TGI (KM12 colon): > 100 µM
TGI (T-47D breast): 67.5 µM
TGI (ACHN renal): 47.5 µM
TGI (LOX IMVI melanoma): 39.3 µM
TGI (HCT-116 colon): 28.8 µM
TGI (A498 renal): 76.2 µM
TGI (HT29 colon): 36.3 µM
TGI (MCF7 breast): 76.5 µM
TGI (K-562 leukemia): > 84 µM
TGI (SF-539 CNS): 48.1 µM

COc1nc(N)c(NC2OC(CO)C(O)C2O)c(=O)[nH]1 (centres undefined)
TGI (DU-145 prostate): > 100 µM
TGI (U251 CNS): > 100 µM
TGI (NCI-H522 lung): > 100 µM
TGI (TK-10 renal): > 100 µM
TGI (HOP-92 NSCLC): > 100 µM
TGI (BT-549 breast): > 100 µM
TGI (MDA-MB-231 breast): > 100 µM
TGI (786-0 renal): > 100 µM
TGI (KM12 colon): > 100 µM
TGI (T-47D breast): > 100 µM
TGI (ACHN renal): > 100 µM
TGI (LOX IMVI melanoma): > 100 µM
TGI (HCT-116 colon): > 100 µM
TGI (A498 renal): > 100 µM
TGI (HT29 colon): > 100 µM
TGI (MCF7 breast): > 100 µM
TGI (K-562 leukemia): > 100 µM
TGI (SF-539 CNS): > 100 µM

CCCN(C(=O)c1c(Cl)nnc(Cl)c1C(=O)c1cc(Cl)nnc1Cl)c1cc(Cl)nnc1Cl
TGI (DU-145 prostate): 27.6 µM
TGI (U251 CNS): 33.3 µM
TGI (NCI-H522 lung): 13.3 µM
TGI (TK-10 renal): 32.2 µM
TGI (HOP-92 NSCLC): 36.9 µM
TGI (BT-549 breast): 32.9 µM
TGI (MDA-MB-231 breast): 34.3 µM
TGI (786-0 renal): 21 µM
TGI (KM12 colon): 26.4 µM
TGI (T-47D breast): 23 µM
TGI (ACHN renal): 25.5 µM
TGI (LOX IMVI melanoma): 18.5 µM
TGI (HCT-116 colon): 19.6 µM
TGI (A498 renal): 33.1 µM
TGI (HT29 colon): 43.4 µM
TGI (MCF7 breast): 16.8 µM
TGI (K-562 leukemia): 27.4 µM
TGI (SF-539 CNS): 40 µM

CC(=O)OC1C(O)COC(O[C@H]2CC[C@]34C[C@]35CC[C@]3(C)C([C@@]6(C)CC[C@@H](C(C)(C)O)O6)[C@@H](O)C[C@@]3(C)C5C[C@H](OC3OCC(O)C(O)C3O)[C@H]4C2(C)C)C1OC1OCC(O)C(O)C1O (some centres undefined)
TGI (DU-145 prostate): > 100 µM
TGI (U251 CNS): > 100 µM
TGI (NCI-H522 lung): > 100 µM
TGI (TK-10 renal): > 100 µM
TGI (HOP-92 NSCLC): > 100 µM
TGI (BT-549 breast): > 100 µM
TGI (MDA-MB-231 breast): > 100 µM
TGI (786-0 renal): > 100 µM
TGI (KM12 colon): > 100 µM
TGI (T-47D breast): > 100 µM
TGI (ACHN renal): > 100 µM
TGI (LOX IMVI melanoma): > 100 µM
TGI (HCT-116 colon): > 100 µM
TGI (A498 renal): > 100 µM
TGI (HT29 colon): > 100 µM
TGI (MCF7 breast): > 100 µM
TGI (K-562 leukemia): > 100 µM
TGI (SF-539 CNS): > 100 µM

COc1nc2c(c(=O)n1C)N(C(C)=O)C1C(N2)OCC(OC(C)=O)C1OC(C)=O (centres undefined)
TGI (DU-145 prostate): > 10 µM
TGI (U251 CNS): > 10 µM
TGI (NCI-H522 lung): > 10 µM
TGI (TK-10 renal): > 10 µM
TGI (HOP-92 NSCLC): > 10 µM
TGI (BT-549 breast): > 10 µM
TGI (MDA-MB-231 breast): > 10 µM
TGI (786-0 renal): > 10 µM
TGI (KM12 colon): > 10 µM
TGI (T-47D breast): > 10 µM
TGI (ACHN renal): > 10 µM
TGI (LOX IMVI melanoma): > 10 µM
TGI (HCT-116 colon): > 10 µM
TGI (A498 renal): > 10 µM
TGI (HT29 colon): > 10 µM
TGI (MCF7 breast): > 10 µM
TGI (K-562 leukemia): > 10 µM
TGI (SF-539 CNS): > 10 µM

O=C(NCc1cccnc1)NCc1cccnc1
TGI (DU-145 prostate): > 100 µM
TGI (U251 CNS): > 100 µM
TGI (NCI-H522 lung): > 100 µM
TGI (TK-10 renal): > 100 µM
TGI (HOP-92 NSCLC): > 100 µM
TGI (BT-549 breast): > 100 µM
TGI (MDA-MB-231 breast): > 100 µM
TGI (786-0 renal): > 100 µM
TGI (KM12 colon): > 100 µM
TGI (T-47D breast): > 100 µM
TGI (ACHN renal): > 100 µM
TGI (LOX IMVI melanoma): > 100 µM
TGI (HCT-116 colon): > 100 µM
TGI (A498 renal): > 100 µM
TGI (HT29 colon): > 100 µM
TGI (MCF7 breast): > 100 µM
TGI (K-562 leukemia): > 100 µM
TGI (SF-539 CNS): > 100 µM

COc1ccc(NC2Oc3cc4c(cc3C(c3cccc(OC)c3OC)C2C)OCO4)cc1 (centres undefined)
TGI (DU-145 prostate): > 100 µM
TGI (U251 CNS): > 100 µM
TGI (NCI-H522 lung): > 100 µM
TGI (TK-10 renal): > 100 µM
TGI (HOP-92 NSCLC): 25.1 µM
TGI (BT-549 breast): > 100 µM
TGI (MDA-MB-231 breast): > 100 µM
TGI (786-0 renal): > 100 µM
TGI (KM12 colon): > 100 µM
TGI (T-47D breast): > 100 µM
TGI (ACHN renal): > 100 µM
TGI (LOX IMVI melanoma): > 100 µM
TGI (HCT-116 colon): 16.3 µM
TGI (A498 renal): 71.1 µM
TGI (HT29 colon): > 100 µM
TGI (MCF7 breast): > 100 µM
TGI (K-562 leukemia): 70.6 µM
TGI (SF-539 CNS): > 100 µM

O=C(NCCCCCCCCNC(=O)c1cc(-c2ccccc2)nc2ccccc12)c1cc(-c2ccccc2)nc2ccccc12
TGI (DU-145 prostate): > 100 µM
TGI (U251 CNS): > 100 µM
TGI (NCI-H522 lung): > 100 µM
TGI (TK-10 renal): > 100 µM
TGI (HOP-92 NSCLC): > 100 µM
TGI (BT-549 breast): > 100 µM
TGI (MDA-MB-231 breast): > 100 µM
TGI (786-0 renal): > 100 µM
TGI (T-47D breast): > 100 µM
TGI (ACHN renal): > 100 µM
TGI (LOX IMVI melanoma): > 100 µM
TGI (HCT-116 colon): > 100 µM
TGI (A498 renal): > 100 µM
TGI (HT29 colon): > 100 µM
TGI (MCF7 breast): > 100 µM
TGI (K-562 leukemia): > 100 µM
TGI (SF-539 CNS): > 100 µM

COc1ccc(NC(=O)/C(=N\NC(=O)C[n+]2ccccc2)c2c(O)c3ccc(O)cc3oc2=O)c([N+](=O)[O-])c1
TGI (DU-145 prostate): > 100 µM
TGI (U251 CNS): > 100 µM
TGI (NCI-H522 lung): > 100 µM
TGI (TK-10 renal): > 100 µM
TGI (HOP-92 NSCLC): > 100 µM
TGI (BT-549 breast): > 100 µM
TGI (MDA-MB-231 breast): > 100 µM
TGI (786-0 renal): > 100 µM
TGI (KM12 colon): > 100 µM
TGI (T-47D breast): > 100 µM
TGI (ACHN renal): > 100 µM
TGI (LOX IMVI melanoma): > 100 µM
TGI (HCT-116 colon): > 100 µM
TGI (A498 renal): > 100 µM
TGI (HT29 colon): > 100 µM
TGI (MCF7 breast): > 100 µM
TGI (K-562 leukemia): > 100 µM
TGI (SF-539 CNS): > 100 µM
